Activity calls are given as the source filed them.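 How the source made its calls: active means STAT1 reporter activators whose half-maximal activating concentration EC50 is 10 µM or lower; inactive means EC50 above 10 µM or no activation.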

One test relates to NIH 3T3 STAT1 luciferase reporter, luminescence. Description: STAT1 reporter activators, potency curves, dose response, counter-screen for STAT3 activator project, cell-based, NIH 3T3, luciferase luminescence (AID 1406).
Settings: not given
Turning to `c1ccc2c(CNC3CCCCCC3)c[nH]c2c1`, the EC50 was > 55.7 µM (inactive).

Still in this test, the particulars now being: cells stimulated with IFN-gamma at EC80.
Turning to `COc1ccc(NC(=O)N2CCn3c2nc2ccccc23)cc1`, the EC50 is > 55.7 µM (inactive).

For `O=C(c1cc[n+]([O-])cc1)N1CCc2c([nH]c3ccccc23)C1c1ccccc1Cl` (stereo not drawn), the EC50 was > 55.7 µM (inactive).

As to `CC(OC(=O)c1cccnc1SCc1cc(=O)n2ccccc2n1)c1ccccn1` (stereo not drawn), the EC50 was > 55.7 µM (inactive).

Regarding `Cc1cccc2c1NC(=O)/C2=C\C(=O)c1cccs1`, the EC50 is > 55.7 µM (inactive).

Take `O=C(O)C1CC=CCC1C(=O)Nc1ccc(S(=O)(=O)N2CCCc3ccccc32)cc1` (stereo not drawn): the EC50 was > 55.7 µM (inactive).

As to `Cc1nnc(NC(=O)c2oc3c(ccc4ccccc43)c2C)s1`, the EC50 is > 55.7 µM (inactive).

With `CCCN(CCC)C(=O)Cn1c2ccccc2c2nc(=O)cc(C)n21`, the EC50 is > 55.7 µM (inactive).

In the case of `COc1ccccc1C(=O)NNC(=S)Nc1ccccc1`, the EC50 is > 55.7 µM (inactive).

For `CCOc1cc(-c2ccc(N)c(OCC)c2)ccc1N`, the EC50 was > 55.7 µM (inactive).

On to `O=C(CCc1nnc(Cc2ccc3c(c2)OCO3)o1)NCc1nc2ccccc2s1`, for which the EC50 was > 55.7 µM (inactive).

Take `COCCSc1ccccc1C(=O)NCCc1ccccc1`: the EC50 is > 55.7 µM (inactive).

Regarding `c1ccc2c(c1)CCCN2c1nc2ccccc2n2cnnc12`, the EC50 was > 55.7 µM (inactive).

`COCCCNc1nc2c(-c3cccc(C(F)(F)F)c3)nnn2c2ccccc12`: the EC50 is > 55.7 µM (inactive).

Consider `CN(C)C(CN1C(=O)C2CC=CCC2C1=O)c1cn(C)c2ccccc12` (stereo not drawn), for which the EC50 was > 55.7 µM (inactive).

With `CCOc1ccccc1-c1n[nH]c(=S)o1`, the EC50 was > 55.7 µM (inactive).

Regarding `COC(=O)C(NC=O)C(O)(Cc1ccccc1)C(F)(F)F` (stereo not drawn), the EC50 is > 55.7 µM (inactive).

As to `Cc1cccc(NC(=O)c2cc([N+](=O)[O-])ccc2Cl)c1O`, the EC50 is > 55.7 µM (inactive).

With `Cc1c(C(=O)NCc2cccnc2)oc2ccc(S(=O)(=O)N3CC(C)CC(C)C3)cc12` (stereo not drawn), the EC50 is > 55.7 µM (inactive).

Turning to `Cn1nc(-c2ccc(Cl)cc2)c2cc(C(=O)NCCCN3CCCC3)sc21`, the EC50 is 21.6 µM (inactive).

Regarding `CCOC(=O)CC1C(=O)NCCN1C(=O)c1cc2c(=O)n3cccc(C)c3nc2s1` (stereo not drawn), the EC50 is > 55.7 µM (inactive).

For `CC1=C(C)C(=O)C(N2CCOCC2)=CC1=O`, the EC50 was > 55.7 µM (inactive).

For the molecule `CCC(CC)NC(=O)Cc1ccccc1[N+](=O)[O-]`, the EC50 is > 55.7 µM (inactive).

On to `COc1ccc(C2c3[nH]c4ccccc4c3CCN2C(=O)c2ccc(=O)n(C)n2)c(F)c1` (stereo not drawn), for which the EC50 is > 55.7 µM (inactive).

`Cc1nc(/N=C(\N)Nc2ccccc2)nc2ccccc12`: the EC50 is > 55.7 µM (inactive).

For `COc1cccc(-c2nc(N3CCCCC3C)c3ccccc3n2)c1O` (stereo not drawn), the EC50 is > 55.7 µM (inactive).

Turning to `Cc1nonc1CC(=O)N1CCc2c([nH]c3ccccc23)C1c1ccccc1F` (stereo not drawn), the EC50 is > 55.7 µM (inactive).

`O=C(CN1CCNCC1)Nc1ccc(Oc2ccccc2)cc1`: the EC50 was > 55.7 µM (inactive).
